Assay results as given in article PMC9317316, “Synthesis and Evaluation of Some New 4H-Pyran Derivatives as Antioxidant, Antibacterial and Anti-HCT-116 Cells of CRC, with Molecular Docking, Antiproliferative, Apoptotic and ADME Investigations” (Pharmaceuticals, 2022).
“And” between values parts separate entries of the source, which are not always exact repeats. Identical values can stand only once.

How the values were obtained:
[1] = Reducing power assay (FRAC, Fe3+ to Fe2+); details: 0-1 mg/mL, absorbance 700 nm
How it was run: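 Oyaizu method: compound (0–1 mg/mL) incubated with 0.2 M phosphate buffer pH 6.6 and 1% K3Fe(CN)6 at 50 °C for 20 min, then TCA, centrifugation, and 0.1% FeCl3 added to supernatant. Absorbance read at 700 nm; EC50 expressed in mM, BHT as reference.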

E. faecalis (ATCC 29122) [2] = assay: Antibacterial viability (CFU) assay, IC50; format: cell-based; details: Enterococcus faecalis, ATCC29122
How it was run: (§1)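 Agar diffusion: compounds applied to top agar seeded with the strain, inhibition zone measured; ampicillin (10 µg/well) as reference. Viability: 2 ×10^7 CFU/mL in BHI shaken with compound 60 min at 37 °C, serially diluted, plated, colonies counted after 24 h at 37 °C; IC50 from residual CFU, mean of three.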

[3] = test system: K. pneumonia (ATCC 700603); assay: Antibacterial viability (CFU) assay, IC50; format: cell-based; details: Klebsiella pneumoniae, ATCC700603
How it was run: as §1

[4] = test system: S. epidermidis (ATCC 14990); assay: Antibacterial viability (CFU) assay, IC50; format: cell-based; details: Staphylococcus epidermidis, ATCC14990
How it was run: as §1

S. enteric (ATCC 43972) = assay: Antibacterial viability (CFU) assay, IC50; format: cell-based; details: read-out: IC50
How it was run: as §1

E. coli (ATCC 25966) [5] = assay: Antibacterial viability (CFU) assay, IC50; format: cell-based; details: Escherichia coli, ATCC25966; E. coil (ATCC 25966)
How it was run: as §1

S. aureus (ATCC 25923) [6] = assay: Antibacterial viability (CFU) assay, IC50; format: cell-based; details: Staphylococcus aureus, ATCC25923
How it was run: as §1

B. cereus (ATCC 14579) [7] = assay: Antibacterial viability (CFU) assay, IC50; format: cell-based; details: Bacillus cereus, ATCC14579
How it was run: as §1

[8] = test system: P. aeruginosa (ATCC 27853); assay: Antibacterial viability (CFU) assay, IC50; format: cell-based; details: Pseudomonas aeruginosa, ATCC27853
How it was run: as §1

B. subtilis (ATCC 6633) [9] = assay: Antibacterial viability (CFU) assay, IC50; format: cell-based; details: Bacillus subtilis, ATCC6633, B. subtilis (ATCC 6633)
How it was run: as §1

CDK2/CyclinA2 enzyme = biological target: T1, CDK2/CyclinA2 enzyme (Homo sapiens, UniProt P24941); assay: In vitro CDK2 inhibitory assay (Kinase-Glo); format: biochemical; details: for IC50: deduced from curves over 0.01-10 µM, read-out: IC50 against CDK2
T1 construct: purchased BPS Biosciences, San Diego, CA, USA 79599
Description: To further substantiate the promising results of the docking analyses of pyrans 4d and 4K in the ATP active site of CDK2, their in vitro potencies to inhibit the enzyme activity were evaluated over a concentration range of 0.01−10 µM.
CDK-2 inhibition activity of the studied compounds 4d and 4k was evaluated using a commercial CDK2 […] (cat. no.: 79599; BPS Biosciences, San Diego, CA, USA) following the manufacturer’s instructions. Briefly, different concentrations of each compound or the positive control BMS-265246 (0.01, 0. 1, 1 or 10 µM) were incubated with 20 µL of diluted CDK2/CyclinA2 enzyme at 30 °C for 45 min. Following the addition of 50 µL Kinase-Glo® Reagent to each well, the plate was incubated at room temperature for 15 min. Then, the luminescence signal was measured using the microplate reader. The CDK2 inhibitory activity was expressed as inhibition percentage, which was determined by comparison with a control experiment for comparative purposes. IC50 values were deduced from the curves. All measurements were performed in triplicate.

E. faecalis (ATCC 29122) [10] = assay: Antibacterial agar diffusion method (inhibition zone); format: cell-based
How it was run: as §1

[11] = test system: K. pneumonia (ATCC 700603); assay: as above; format: cell-based
How it was run: as §1

[12] = test system: S. epidermidis (ATCC 14990); assay: as above; format: cell-based
How it was run: as §1

E. coli (ATCC 25966) [13] = assay: as above; format: cell-based; details: E. coil (ATCC 25966)
How it was run: as §1

S. aureus (ATCC 25923) [14] = assay: as above; format: cell-based
How it was run: as §1

B. cereus (ATCC 14579) [15] = assay: as above; format: cell-based
How it was run: as §1

[16] = test system: P. aeruginosa (ATCC 27853); assay: as above; format: cell-based
How it was run: as §1

B. subtilis (ATCC 6633) [17] = assay: as above; format: cell-based
How it was run: as §1

| Structure (SMILES) | EC50 [1] [µM] | IC50 (E. faecalis (ATCC 29122) [2]) [µM] | IC50 [3] [µM] | IC50 [4] [µM] | IC50 (S. enteric (ATCC 43972)) [µM] | IC50 (E. coli (ATCC 25966) [5]) [µM] | IC50 (S. aureus (ATCC 25923) [6]) [µM] | IC50 (B. cereus (ATCC 14579) [7]) [µM] | IC50 [8] [µM] | IC50 (B. subtilis (ATCC 6633) [9]) [µM] | decrease of CDK2 activity (CDK2/CyclinA2 enzyme; at 0.01 µM) [%] | decrease of CDK2 activity (CDK2/CyclinA2 enzyme; at 0.1 µM) [%] | decrease of CDK2 activity (CDK2/CyclinA2 enzyme; at 1 µM) [%] | decrease of CDK2 activity (CDK2/CyclinA2 enzyme; at 10 µM) [%] | IC50 (CDK2/CyclinA2 enzyme) [µM] | IZ (mm) (E. faecalis (ATCC 29122) [10]) | IZ (mm) [11] [mm] | IZ (mm) [12] [mm] | IZ (mm) (E. coli (ATCC 25966) [13]) | IZ (mm) (S. aureus (ATCC 25923) [14]) | further results |
| --- | --- | --- | --- | --- | --- | --- | --- | --- | --- | --- | --- | --- | --- | --- | --- | --- | --- | --- | --- | --- | --- |
| COc1cc(C2C(C#N)=C(N)OC(C)=C2C(=O)OCc2ccccc2)cc(OC)c1OC (stereo not shown) [4d, 6-Amino-5-cyano-2-methyl-4-(3,4,5-trimethoxy-phenyl)-4H-pyran-3-carboxylic acid benzyl ester] | 149 ± 16 | 29.1 ± 2.27 | 72.63 ± 0.69 | 26.7 ± 1.15 | 65.8 ± 2.29 | 88.7 ± 2.52 | 24.4 ± 1.15 | 39.5 ± 0.8 | 67.4 ± 1.37 | 40.3 ± 1.95 | 26.9 | 41.5 | 72.5 | 89 | 0.143 | 14.50 mm and 14.50 ± 0.71 mm | 4.5 ± 0.7 | 8.50 ± 0.71 | 3.5 ± 0.71 | 9.00 mm and 9.00 ± 1.41 mm | IZ (mm) (B. cereus (ATCC 14579) [15]): 9.50 ± 0.71 mm; IZ (mm) [16]: 6.5 ± 0.7 mm; IZ (mm) (B. subtilis (ATCC 6633) [17]): 12.00 ± 1.41 mm |
| CC1=C(C(=O)OCc2ccccc2)C(c2ccc(C#N)cc2)C(C#N)=C(N)O1 (stereo not shown) [4k, 6-Amino-5-cyano-4-(4-cyano-phenyl)-2-methyl-4H-pyran-3-carboxylic acid benzyl ester] | 1560 ± 102 | 45.4 ± 0.57 | 77.8 ± 2.96 | 50.2 ± 2.48 | 75.5 ± 2.42 | 80.2 ± 4.31 | 43.9 ± 0.57 | 48.1 ± 1.35 | 73.2 ± 3.5 | 42.1 ± 2.48 | 21.9 | 42.4 | 66.3 | 83.6 | 0.214 | 5.50 ± 0.71 mm | 2.5 ± 0.7 | 4.50 ± 0.71 | 4.5 ± 0.71 | 5.75 ± 0.35 mm | IZ (mm) (B. cereus (ATCC 14579) [15]): 7.00 ± 1.41 mm; IZ (mm) [16]: 3.5 ± 0.7 mm; IZ (mm) (B. subtilis (ATCC 6633) [17]): 4.50 ± 0.71 mm |
